Data published in US20260137711A1, “COMBINATION THERAPY FOR CANCER” (NATIONAL UNIVERSITY OF IRELAND, GALWAY, priority 2022, published 2026).
Entries after “also recorded” stand apart in the source; their conditions may differ.

Tested on: MCF10A cells
Test: Flow cytometry of cell cycle distribution and DNA synthesis (EdU/DAPI)
Format: cell-based, human
Details: for cell cycle distribution: 24 hours
Procedure: (c) A typical profile obtained by flow cytometry of MCF10A cells labelled with EdU and DAPI that indicates the gating applied in order to determine the percentage of cells with sub-G1 DNA content (sub-G1), G1 cells (G1), replicating early-mid S phase cells (Early-Mid S/EdU+), replicating mid-late S phase cells (Mid-Late S/EdU+), cells with S phase DNA content but not replicating (2n<& <4n/EdU−), and cells either in G2 or mitosis (G2/M).(d-f) MCF10A cells were mock treated or treated with 10 μM XL413, in the presence or absence of increasing concentrations of the CDK8 inhibitor BI-1347, for 24 hours. (d) Cells were labelled with EdU for last 30 minutes and DNA synthesis, DNA content and cell cycle distribution were assessed by flow cytometry and analysed using the gating strategy described in above (FIG. 2c). (e) Distribution of cells in the cell cycle. (f) Fluorescence intensity, proportional to EdU incorporation, in individual S phase cells. Long and short horizontal black lines indicate the median and the interquartile range, respectively, extending from the 25th to the 75th percentile for ˜3,810 cells for each condition. Data is from a single experiment.
FIG. 3: CDK8 activity is required for efficient DNA synthesis under conditions of limited CDC7 kinase activity (a-c) MCF10A cells were mock treated or treated with 31 nM BI-1347, in the presence or absence of increasing concentrations of the CDC7 inhibitors, XL413 (a-c) and TAK-931 (d-f), for 24 hours. (a and d) Cells were labelled with EdU for last 30 minutes and DNA synthesis, DNA content and cell cycle distribution were assessed by flow cytometry and analysed using the gating strategy described in FIG. 2c.c (b and e) distribution of cells in the cell cycle. (c and f) Fluorescence intensity, proportional to EdU incorporation, in individual S phase cells. Long and short horizontal black lines indicate the median and the interquartile range, respectively, extending from the 25th to the 75th percentile for ˜4,190 cells for each condition. Data is from a single experiment.
To analyse the cell cycle and DNA synthesis, nascent DNA was labelled by incubating cells with 10 μM EdU for either 20 or 30 minutes prior to harvest, washing with PBS, and then by resuspension in PBS containing 70% EtOH for 1 hour at −20° C. After a PBS wash, incorporated EdU was labelled by incubating cells in click reaction buffer (PBS containing 10 μM 6-Carboxyfluorescine-TEG-azide, 10 mM Sodium-L-ascorbate, 2 mM Copper-II-Sulphate) for 30 minutes protected from light. Cells were washed in PBS containing 1% BSA, 5% Tween 20 and then DNA stained in PBS containing 1% BSA and 1 μg/ml DAPI. All washes involve: centrifugation at 400×g for 5 minutes, removal of supernatant from pellet, resuspension in the appropriate buffer, recentrifugation and removal of supernatant from the pellet prior to the next step.
Fluorescence intensity data for 6-Carboxyfluorescine (488_530_30 nm) and DAPI (405_450_50 nm) were acquired for 10,000 single cells on a BD FACS Canto II and analysed using FlowJo software. To further analyse fluorescence intensity, proportional to EdU incorporation, for individual cells, gates were applied on DAPI-EdU biparametric dot plots to select for EdU positive S phase cells using FlowJo. According to the required analysis these gates included either all S phase cells, or only early or late S phase cells. Fluorescence intensity (488_530_30) values per cell were exported and plotted as scatter dot plots using GraphPad prism. For comparisons of mean fluorescence intensity of a cell population across three biological repeat experiments, all fluorescence intensity values were normalised to the maximum fluorescence intensity of the untreated control sample of each respective experiment to account for absolute differences in EdU staining. […]

## Cl.O=c1[nH]c([C@@H]2CCCN2)nc2c1oc1ccc(Cl)cc12 [XL413]
  rate of DNA synthesis: strongly reduced; also recorded: much more profound decrease
  rate of DNA synthesis of S phase cells: corresponding decrease
10 μM XL413 alone
  cell cycle distribution: accumulation of cells in mid to late S phase
CDC7 inhibitor alone at increasing concentrations, absence of CDK8/CDK19i
  cell cycle distribution: dose-dependent accumulation of mid-late S phase cells
CDC7 inhibitor at increasing concentrations together with the CDK8/CDK19 inhibitor (31 nM BI-1347), all doses tested
  cell cycle distribution: more pronounced accumulation of cells in mid-late S phase
